Laboratory results reported in patent US10294202B2, “Pyrrolidinones as herbicides” (FMC Corporation, priority 2013, dated 2019).

Key:
morningglory = experiment: Test A pre-/postemergence herbicide test; assay type: in vivo, Ipomoea spp.; conditions: for Morningglory plant response rating: Preemergence, visual rating on 0 to 100 scale (0 no effect, 100 complete control)
How it was run: (§1)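 Visual injury ratings, 0 = no effect, 100 = complete control, taken ~10 days after treatment against untreated greenhouse controls. Preemergence: directed soil spray onto seeded loam/sand pots. Postemergence: spray onto plants at one- to two-leaf stage, 2–10 cm tall.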

ducksalad = experiment: Test C flooded paddy test; assay type: in vivo, Heteranthera limosa; conditions: Flood
How it was run: (§2)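 Ratings reflect visual comparison with controls on a 0–100 scale, where 100 is complete control. Compound is dosed into standing paddy water 3 cm deep over 2-leaf-stage plants, kept in the greenhouse 13 to 15 days.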

crabgrass, large = experiment: Test A pre-/postemergence herbicide test; assay type: in vivo, Digitaria sanguinalis; conditions: for Crabgrass, Large plant response rating: Preemergence, visual rating on 0 to 100 scale (0 no effect, 100 complete control)
How it was run: as §1

pigweed = experiment: Test A pre-/postemergence herbicide test; assay type: in vivo, Amaranthus retroflexus; conditions: for Pigweed plant response rating: Preemergence, visual rating on 0 to 100 scale (0 no effect, 100 complete control)
How it was run: as §1

wheat = experiment: Test A pre-/postemergence herbicide test; assay type: in vivo, Triticum aestivum; conditions: for Wheat plant response rating: Preemergence, visual rating on 0 to 100 scale (0 no effect, 100 complete control)
How it was run: as §1

velvetleaf = experiment: Test A pre-/postemergence herbicide test; assay type: in vivo, Abutilon theophrasti; conditions: for Velvetleaf plant response rating: Preemergence, visual rating on 0 to 100 scale (0 no effect, 100 complete control)
How it was run: as §1

barnyardgrass [1] = experiment: Test C flooded paddy test; assay type: in vivo, Echinochloa crus-galli; conditions: Flood
How it was run: as §2

rice = experiment: Test C flooded paddy test; assay type: in vivo, Oryza sativa; conditions: Flood
How it was run: as §2

barnyardgrass [2] = experiment: Test A pre-/postemergence herbicide test; assay type: in vivo, Echinochloa crus-galli; conditions: for Barnyardgrass plant response rating: Preemergence, visual rating on 0 to 100 scale (0 no effect, 100 complete control)
How it was run: as §1

corn = experiment: Test A pre-/postemergence herbicide test; assay type: in vivo, Zea mays; conditions: for Corn plant response rating: Preemergence, visual rating on 0 to 100 scale (0 no effect, 100 complete control)
How it was run: as §1

giant foxtail = experiment: Test A pre-/postemergence herbicide test; assay type: in vivo, Setaria faberii; conditions: for Foxtail, Giant plant response rating: Preemergence, visual rating on 0 to 100 scale (0 no effect, 100 complete control)
How it was run: as §1

sedge, umbrella = experiment: Test C flooded paddy test; assay type: in vivo, Cyperus difformis; conditions: Flood
How it was run: as §2

[3] = Postemergence, 125 g ai/ha, 0 to 100 scale, 0 no effect, 100 complete control
[4] = Postemergence, 500 g ai/ha, 0 to 100 scale (0 no effect, 100 complete control)
[5] = preemergence, 500 g ai/ha, 0 to 100 scale
[6] = 31 g ai/ha, scale of 0 to 100 where 0 is no effect and 100 is complete control, 13 to 15 days
[7] = 62 g ai/ha, scale of 0 to 100 where 0 is no effect and 100 is complete control, 13 to 15 days
[8] = 125 g ai/ha, scale of 0 to 100 where 0 is no effect and 100 is complete control, 13 to 15 days
[9] = preemergence, 500 g ai/ha, 0 to 100 scale (0 no effect, 100 complete control)
[10] = 125 g ai/ha, visual rating, 0 to 100 scale, 0 no effect, 100 complete control, approximately 10 days, preemergence
[11] = Postemergence, 125 g ai/ha, 0 to 100 scale, 0 is no effect, 100 is complete control
[12] = preemergence, 500 g ai/ha, 0 to 100 scale, 0 is no effect and 100 is complete control
[13] = 250 g ai/ha, scale of 0 to 100 where 0 is no effect and 100 is complete control, 13 to 15 days

Compound: O=C1NCC(c2ccsc2)C1C(=O)Nc1ccccc1F (racemic) [Compound 29]
- Plant response rating, Morningglory (morningglory; [3]): 0
- Plant response rating, Morningglory (morningglory; [4]): 0
- Morningglory plant response rating (morningglory; 125 g ai/ha): 0
- Plant response rating, Morningglory (morningglory; [5]): 0
- Plant response rating, Ducksalad (ducksalad; [6]): 0
- Plant response rating, Ducksalad (ducksalad; [7]): 0
- Plant response rating, Ducksalad (ducksalad; [8]): 0
- Plant response rating, Ducksalad (ducksalad; 250 g ai/ha, scale 0 to 100): 40
- Plant response rating, Crabgrass, Large (crabgrass, large; [3]): 0
- Plant response rating, Crabgrass, Large (crabgrass, large; [4]): 0
- Crabgrass, Large plant response rating (crabgrass, large; 125 g ai/ha): 30
- Plant response rating, Crabgrass, Large (crabgrass, large; [5]): 70
- Plant response rating, Pigweed (pigweed; [3]): 0
- Plant response rating, Pigweed (pigweed; [4]): 0
- Pigweed plant response rating (pigweed; 125 g ai/ha): 0
- Plant response rating, Pigweed (pigweed; [5]): 0
- Plant response rating, Wheat (wheat; [3]): 0
- Plant response rating, Wheat (wheat; [4]): 0
- Wheat plant response rating (wheat; 125 g ai/ha): 0
- Plant response rating, Wheat (wheat; [5]): 0
- Plant response rating, Velvetleaf (velvetleaf; [3]): 0
- Plant response rating, Velvetleaf (velvetleaf; [4]): 0
- Velvetleaf plant response rating (velvetleaf; 125 g ai/ha): 0
- Plant response rating, Velvetleaf (velvetleaf; [5]): 0
- Plant response rating, Barnyardgrass (barnyardgrass [1]; [6]): 0
- Plant response rating, Barnyardgrass (barnyardgrass [1]; [7]): 0
- Plant response rating, Barnyardgrass (barnyardgrass [1]; [8]): 0
- Plant response rating, Barnyardgrass (barnyardgrass [1]; 250 g ai/ha, scale 0 to 100): 0
- Plant response rating, Rice (rice; [6]): 0
- Plant response rating, Rice (rice; [7]): 0
- Plant response rating, Rice (rice; [8]): 0
- Plant response rating, Rice (rice; 250 g ai/ha, scale 0 to 100): 0
- Plant response rating, Barnyardgrass (barnyardgrass [2]; [3]): 0
- Plant response rating, Barnyardgrass (barnyardgrass [2]; [4]): 0
- Barnyardgrass plant response rating (barnyardgrass [2]; 125 g ai/ha): 0
- Plant response rating, Barnyardgrass (barnyardgrass [2]; [9]): 50
- Plant response rating, Corn (corn; [3]): 0
- Plant response rating, Corn (corn; [4]): 0
- Corn plant response rating (corn; 125 g ai/ha): 0
- Plant response rating, Corn (corn; [5]): 0
- Plant response rating, Foxtail, Giant (giant foxtail; [3]): 0
- Plant response rating, Foxtail, Giant (giant foxtail; [4]): 0
- Foxtail, Giant plant response rating (giant foxtail; 125 g ai/ha): 0
- Plant response rating, Foxtail, Giant (giant foxtail; [5]): 0
- Plant response rating, Sedge, Umbrella (sedge, umbrella; [6]): 0
- Plant response rating, Sedge, Umbrella (sedge, umbrella; [7]): 0
- Plant response rating, Sedge, Umbrella (sedge, umbrella; [8]): 0
- Plant response rating, Sedge, Umbrella (sedge, umbrella; 250 g ai/ha, scale 0 to 100): 0

Compound: O=C1NCC(c2cccc(C(F)(F)F)c2)C1C(=O)Nc1ccccc1Br (racemic) [Compound 190]
- Plant response rating, Morningglory (morningglory; [10]): 0
- Plant response rating, Morningglory (morningglory; [11]): 0
- Morningglory plant response rating (0 to 100 scale, 0 is no effect, 100 is complete control) (morningglory; Postemergence, 500 g ai/ha): 10
- Plant response rating, Morningglory (morningglory; [12]): 0
- Plant response rating, Ducksalad (ducksalad; [8]): 50
- Plant response rating, Ducksalad (ducksalad; [13]): 75
- Plant response rating, Ducksalad (ducksalad; 500 g ai/ha, scale 0 to 100): 85
- Plant response rating, Ducksalad (ducksalad; 1000 g ai/ha, scale 0 to 100): 100
- Plant response rating, Crabgrass, Large (crabgrass, large; [10]): 90
- Plant response rating, Crabgrass, Large (crabgrass, large; [11]): 70
- Crabgrass, Large plant response rating (0 to 100 scale, 0 is no effect, 100 is complete control) (crabgrass, large; Postemergence, 500 g ai/ha): 90
- Plant response rating, Crabgrass, Large (crabgrass, large; [12]): 90
- Plant response rating, Pigweed (pigweed; [10]): 0
- Plant response rating, Pigweed (pigweed; [11]): 0
- Pigweed plant response rating (0 to 100 scale, 0 is no effect, 100 is complete control) (pigweed; Postemergence, 500 g ai/ha): 0
- Plant response rating, Pigweed (pigweed; [12]): 0
- Plant response rating, Wheat (wheat; [10]): 0
- Plant response rating, Wheat (wheat; [11]): 0
- Wheat plant response rating (0 to 100 scale, 0 is no effect, 100 is complete control) (wheat; Postemergence, 500 g ai/ha): 0
- Plant response rating, Wheat (wheat; [12]): 30
- Plant response rating, Velvetleaf (velvetleaf; [10]): 0
- Plant response rating, Velvetleaf (velvetleaf; [11]): 0
- Velvetleaf plant response rating (0 to 100 scale, 0 is no effect, 100 is complete control) (velvetleaf; Postemergence, 500 g ai/ha): 10
- Plant response rating, Velvetleaf (velvetleaf; [12]): 0
- Plant response rating, Barnyardgrass (barnyardgrass [1]; [8]): 10
- Plant response rating, Barnyardgrass (barnyardgrass [1]; [13]): 25
- Plant response rating, Barnyardgrass (barnyardgrass [1]; 500 g ai/ha, scale 0 to 100): 50
- Plant response rating, Barnyardgrass (barnyardgrass [1]; 1000 g ai/ha, scale 0 to 100): 65
- Plant response rating, Rice (rice; [8]): 0
- Plant response rating, Rice (rice; [13]): 0
- Plant response rating, Rice (rice; 500 g ai/ha, scale 0 to 100): 0
- Plant response rating, Rice (rice; 1000 g ai/ha, scale 0 to 100): 15
- Plant response rating, Barnyardgrass (barnyardgrass [2]; [10]): 60
- Plant response rating, Barnyardgrass (barnyardgrass [2]; [11]): 70
- Barnyardgrass plant response rating (0 to 100 scale, 0 is no effect, 100 is complete control) (barnyardgrass [2]; Postemergence, 500 g ai/ha): 90
- Plant response rating, Barnyardgrass (barnyardgrass [2]; [12]): 90
- Plant response rating, Corn (corn; [10]): 0
- Plant response rating, Corn (corn; [11]): 0
- Corn plant response rating (0 to 100 scale, 0 is no effect, 100 is complete control) (corn; Postemergence, 500 g ai/ha): 40
- Plant response rating, Corn (corn; [12]): 0
- Plant response rating, Foxtail, Giant (giant foxtail; [10]): 80
- Plant response rating, Foxtail, Giant (giant foxtail; [11]): 70
- Foxtail, Giant plant response rating (0 to 100 scale, 0 is no effect, 100 is complete control) (giant foxtail; Postemergence, 500 g ai/ha): 80
- Plant response rating, Foxtail, Giant (giant foxtail; [12]): 90
- Plant response rating, Sedge, Umbrella (sedge, umbrella; [8]): 0
- Plant response rating, Sedge, Umbrella (sedge, umbrella; [13]): 0
- Plant response rating, Sedge, Umbrella (sedge, umbrella; 500 g ai/ha, scale 0 to 100): 0
- Plant response rating, Sedge, Umbrella (sedge, umbrella; 1000 g ai/ha, scale 0 to 100): 0

Compound: CC1(C)NC(=O)C(C(=O)Nc2ccccc2F)C1c1ccc(F)c(F)c1 (centres unmarked) [Compound 11]
- Plant response rating, Morningglory (morningglory; [3]): 0
- Plant response rating, Morningglory (morningglory; [4]): 0
- Morningglory plant response rating (morningglory; 125 g ai/ha): 0
- Plant response rating, Morningglory (morningglory; [5]): 0
- Plant response rating, Ducksalad (ducksalad; [6]): 0
- Plant response rating, Ducksalad (ducksalad; [7]): 0
- Plant response rating, Ducksalad (ducksalad; [8]): 0
- Plant response rating, Ducksalad (ducksalad; 250 g ai/ha, scale 0 to 100): 0
- Plant response rating, Crabgrass, Large (crabgrass, large; [3]): 0
- Plant response rating, Crabgrass, Large (crabgrass, large; [4]): 50
- Crabgrass, Large plant response rating (crabgrass, large; 125 g ai/ha): 70
- Plant response rating, Crabgrass, Large (crabgrass, large; [5]): 90
- Plant response rating, Pigweed (pigweed; [3]): 0
- Plant response rating, Pigweed (pigweed; [4]): 0
- Pigweed plant response rating (pigweed; 125 g ai/ha): 0
- Plant response rating, Pigweed (pigweed; [5]): 0
- Plant response rating, Wheat (wheat; [3]): 0
- Plant response rating, Wheat (wheat; [4]): 0
- Wheat plant response rating (wheat; 125 g ai/ha): 0
- Plant response rating, Wheat (wheat; [5]): 0
- Plant response rating, Velvetleaf (velvetleaf; [3]): 0
- Plant response rating, Velvetleaf (velvetleaf; [4]): 0
- Velvetleaf plant response rating (velvetleaf; 125 g ai/ha): 0
- Plant response rating, Velvetleaf (velvetleaf; [5]): 0
- Plant response rating, Barnyardgrass (barnyardgrass [1]; [6]): 0
- Plant response rating, Barnyardgrass (barnyardgrass [1]; [7]): 0
- Plant response rating, Barnyardgrass (barnyardgrass [1]; [8]): 0
- Plant response rating, Barnyardgrass (barnyardgrass [1]; 250 g ai/ha, scale 0 to 100): 0
- Plant response rating, Rice (rice; [6]): 0
- Plant response rating, Rice (rice; [7]): 0
- Plant response rating, Rice (rice; [8]): 0
- Plant response rating, Rice (rice; 250 g ai/ha, scale 0 to 100): 0
- Plant response rating, Barnyardgrass (barnyardgrass [2]; [3]): 0
- Plant response rating, Barnyardgrass (barnyardgrass [2]; [4]): 50
- Barnyardgrass plant response rating (barnyardgrass [2]; 125 g ai/ha): 0
- Plant response rating, Barnyardgrass (barnyardgrass [2]; [9]): 20
- Plant response rating, Corn (corn; [3]): 0
- Plant response rating, Corn (corn; [4]): 0
- Corn plant response rating (corn; 125 g ai/ha): 0
- Plant response rating, Corn (corn; [5]): 0
- Plant response rating, Foxtail, Giant (giant foxtail; [3]): 0
- Foxtail, Giant plant response rating (giant foxtail; 125 g ai/ha): 20
- Plant response rating, Foxtail, Giant (giant foxtail; [5]): 50
- Plant response rating, Sedge, Umbrella (sedge, umbrella; [6]): 0
- Plant response rating, Sedge, Umbrella (sedge, umbrella; [7]): 0
- Plant response rating, Sedge, Umbrella (sedge, umbrella; [8]): 0
- Plant response rating, Sedge, Umbrella (sedge, umbrella; 250 g ai/ha, scale 0 to 100): 0
